Measured values: ChEMBL document CHEMBL1201862, “PubChem BioAssay data set” (2004)
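Exposure lasted 48 hours, with cells grown in 96-well plates and compounds tested at five concentrations. GI50 marks 50% less growth.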 Active and inactive are the calls of the source. No stated cut-off is given here; in the data, active = GI50 up to about 1.1 µM and inactive = higher.

What was measured:
Experiment in all cases: growth of human tumour cells (NCI), 48 h
OVCAR-8 = test system: OVCAR-8
SF-268 = test system: SF-268
RPMI-8226 = test system: RPMI-8226
Malme-3M = test system: Malme-3M
OVCAR-3 = test system: OVCAR-3
SR = test system: SR
HOP-18 = test system: HOP-18
HT-29 = test system: HT-29
DMS-273 = test system: DMS-273
NCI-H23 = test system: NCI-H23
MOLT-4 = test system: MOLT-4
SN12C = test system: SN12C
SNB-78 = test system: SNB-78
EKVX = test system: EKVX
OVCAR-5 = test system: OVCAR-5
RXF 393 = test system: RXF 393
NCI/ADR-RES = test system: NCI/ADR-RES
T47D = test system: T47D
MDA-MB-231 = test system: MDA-MB-231
MCF7 = test system: MCF7

Measured: GI50

CC1(CO)OC(n2cc(C(=O)NC(=O)OCc3ccccc3)c(=O)[nH]c2=O)CC1O (configuration not stated)
inactive: OVCAR-8 > 100 µM | SF-268 > 100 µM | RPMI-8226 > 100 µM | Malme-3M > 100 µM | OVCAR-3 > 100 µM | SR > 100 µM | HOP-18 > 100 µM | HT-29 > 100 µM | DMS-273 > 100 µM | NCI-H23 > 100 µM | MOLT-4 > 100 µM | SN12C > 100 µM

COc1cc(C=O)c(-c2c(C=O)ccc3c2OCO3)c(OC)c1OC
inactive: OVCAR-8 > 100 µM | SNB-78 > 100 µM | SF-268 89.3 µM | RPMI-8226 56.5 µM | EKVX > 100 µM | Malme-3M 67.3 µM | OVCAR-3 72.6 µM | OVCAR-5 > 100 µM | SR 29.6 µM | HOP-18 > 100 µM | HT-29 69.2 µM | DMS-273 72.6 µM | NCI-H23 > 100 µM | MOLT-4 76.2 µM | SN12C > 100 µM

O=NN(CCCl)C(=O)NC1CCCCC1 [LOMUSTINE]
inactive: RXF 393 35.3 µM | OVCAR-8 52.2 µM | SF-268 24.5 µM | NCI/ADR-RES 51.3 µM | RPMI-8226 16.9 µM | T47D 31.6 µM | EKVX 72.8 µM | Malme-3M 57.8 µM | OVCAR-3 66.2 µM | OVCAR-5 81.1 µM | MDA-MB-231 21.6 µM | HOP-18 31.6 µM | HT-29 53.8 µM | MCF7 35.5 µM | DMS-273 48.1 µM | NCI-H23 68.5 µM | MOLT-4 18.4 µM | SN12C 46.6 µM

OCC(O)CNc1ccnc2cc(Cl)ccc12 (configuration not stated)
inactive: RXF 393 > 100 µM | OVCAR-8 > 100 µM | SNB-78 > 100 µM | SF-268 > 100 µM | RPMI-8226 > 100 µM | EKVX > 100 µM | Malme-3M > 100 µM | OVCAR-3 > 100 µM | OVCAR-5 > 100 µM | SR > 100 µM | HOP-18 > 100 µM | HT-29 > 100 µM | NCI-H23 > 100 µM | MOLT-4 > 100 µM | SN12C > 100 µM

COc1cc(Nc2cnc3cc(N)ccc3n2)cc(OC)c1OC
inactive: OVCAR-8 78.2 µM | SF-268 > 100 µM | EKVX 58.6 µM | Malme-3M > 100 µM | OVCAR-3 53.8 µM | OVCAR-5 > 100 µM | SR 44.1 µM | HOP-18 51.3 µM | HT-29 62.5 µM | DMS-273 11.7 µM | NCI-H23 > 100 µM | MOLT-4 52.2 µM | SN12C 94.6 µM

NC1=C(NC(=O)Cc2ccccc2F)C(=O)c2ccccc2C1=O
inactive: RXF 393 34.4 µM | OVCAR-8 39.2 µM | SF-268 34.6 µM | RPMI-8226 > 100 µM | EKVX 59.3 µM | Malme-3M 13.6 µM | OVCAR-3 8.26 µM | HOP-18 > 100 µM | HT-29 46.7 µM | DMS-273 97.7 µM | NCI-H23 40.6 µM | MOLT-4 > 100 µM | SN12C 90.6 µM

COc1ccc2c3c([nH]c2c1[N+](=O)[O-])C(C)N(C(=O)/C=C/c1ccccc1)CC3 (configuration not stated)
inactive: RXF 393 3.27 µM | OVCAR-8 3.91 µM | SNB-78 7.05 µM | SF-268 1.7 µM | RPMI-8226 2.78 µM | EKVX 16.6 µM | OVCAR-3 4.8 µM | OVCAR-5 > 100 µM | SR 3.92 µM | HT-29 3.89 µM | DMS-273 1.57 µM | NCI-H23 25.5 µM | MOLT-4 2.64 µM | SN12C 41.2 µM

c1cnn(CN(Cn2cccn2)Cn2cccn2)c1
inactive: RXF 393 > 100 µM | OVCAR-8 > 100 µM | SNB-78 > 100 µM | SF-268 > 100 µM | RPMI-8226 35.5 µM | EKVX > 100 µM | OVCAR-3 > 100 µM | SR > 100 µM | DMS-273 > 100 µM | NCI-H23 > 100 µM | MOLT-4 > 100 µM | SN12C > 100 µM

O=S(=O)(SCCCCSS(=O)(=O)c1ccc(Cl)cc1)c1ccc(Cl)cc1
inactive: RXF 393 16.7 µM | OVCAR-8 12.2 µM | SNB-78 18.6 µM | SF-268 10.5 µM | RPMI-8226 4.39 µM | EKVX 4.67 µM | Malme-3M 15.4 µM | OVCAR-3 14.7 µM | OVCAR-5 16.7 µM | HOP-18 13.6 µM | HT-29 17.3 µM | DMS-273 10.3 µM | NCI-H23 10.3 µM | MOLT-4 2.73 µM | SN12C 9.23 µM

O=C(NCc1cccnc1)C1COc2cc(-c3cc(=O)c4ccccc4o3)ccc2O1 (configuration not stated)
inactive: RXF 393 28.7 µM | OVCAR-8 3.64 µM | SNB-78 > 82.8 µM | SF-268 3.89 µM | RPMI-8226 > 100 µM | EKVX > 81.5 µM | Malme-3M > 64.6 µM | OVCAR-3 > 100 µM | OVCAR-5 > 100 µM | SR 5.46 µM | HOP-18 > 79.4 µM | HT-29 > 87.3 µM | NCI-H23 13.6 µM | MOLT-4 5.14 µM | SN12C 4.34 µM

O=c1oc2ccccc2c(O)c1C(C/C(CCN1CCCC1)=N\Nc1ccccc1)c1ccccc1 (configuration not stated)
inactive: RXF 393 32.7 µM | OVCAR-8 > 100 µM | SNB-78 > 100 µM | SF-268 > 100 µM | RPMI-8226 27.1 µM | EKVX > 100 µM | Malme-3M 78.5 µM | OVCAR-3 53.5 µM | OVCAR-5 > 100 µM | SR 31.2 µM | HOP-18 91.8 µM | HT-29 62.8 µM | NCI-H23 57.3 µM | SN12C 74.6 µM

CC(C)(C)C1CC[C@H]2c3c([nH]c4ccccc34)[C@H]3C(=O)N(c4ccc(F)cc4)C(=O)[C@H]3[C@H]2C1 (some centres not stated)
inactive: RXF 393 27.4 µM | OVCAR-8 12.1 µM | SNB-78 18.4 µM | SF-268 13.6 µM | EKVX 16.3 µM | Malme-3M 16.9 µM | OVCAR-3 16.7 µM | OVCAR-5 28.9 µM | HOP-18 17.1 µM | DMS-273 17.8 µM | NCI-H23 18.6 µM | MOLT-4 13.2 µM | SN12C 11.1 µM

Nc1nc(N)c(-c2ccccc2)c(C(=O)Nc2ccccc2)n1
inactive: RXF 393 > 100 µM | OVCAR-8 > 100 µM | SNB-78 > 100 µM | SF-268 > 100 µM | RPMI-8226 > 100 µM | EKVX > 100 µM | Malme-3M > 100 µM | OVCAR-3 > 100 µM | OVCAR-5 > 100 µM | HOP-18 > 100 µM | HT-29 > 100 µM | NCI-H23 > 100 µM | MOLT-4 > 100 µM | SN12C > 100 µM

CN/C=C(/c1ccc(OC)cc1)C(O)c1ccc(OC)c(OC)c1 (configuration not stated)
inactive: RXF 393 > 100 µM | OVCAR-8 > 100 µM | RPMI-8226 > 100 µM | EKVX > 100 µM | Malme-3M > 100 µM | OVCAR-3 > 100 µM | OVCAR-5 > 100 µM | SR > 100 µM | HOP-18 > 100 µM | HT-29 > 100 µM | DMS-273 > 100 µM | NCI-H23 > 100 µM | MOLT-4 > 100 µM | SN12C > 100 µM
